Data from patent US9205089B2, “Layer processing for pharmaceuticals” (Massachusetts Institute of Technology, priority 2011, dated 2015).

Key:
Type in all cases: physicochemical
[1] = DSC glass transition of rapid quench 50% ACM layers; settings: 50% ACM loading, DSC 10° C./min
Procedure: All analyses were carried out in triplicate.
Most thin layer drug products are initially amorphous, but tend to crystallize slowly over time. Time and material consuming storage experiments are usually required to study the stability of amorphous drug candidate. It is necessary to predict the amorphous stability of drug candidates early in the formulation process. However, the glass transition temperature of the polymer is masked by the melting peak of the drug and little extra information can be extracted. The DSC heating curve for a sample quench cooled after being melted gave information on the glass transition temperature, the crystallisation exotherm, and the melting endotherm (FIG. 21). Samples were prepared by melting in closed DSC pans from R.T. to 200° C. at a rate of 10° C./min and subsequently cooled to −10° C. at a cooling rate of 10° C./min. The pure ACM phases were well studied by DSC; the amorphous form a glass transition peak at 24.8° C., a crystallization peak between 65° C. to 100° C., a solid state transition at about 130° C. from Form III to Form II, and a melting peak for Form II at about 158° C.

[2] = Crystallization time of ACM in layers with different excipients; settings: 50% ACM layers
[3] = HPLC purity of aliskiren in Aliskiren/HPMC layers under different drying conditions
Procedure: (§1) Water content was measured using a […] volumetric KF titration from Mettler Toledo. […] […] drug purity was verified by Agilent […] series high performance liquid chromatography (HPLC). All analyses were carried out in triplicate. […] In order to confirm the chemical stability of the drug, HPLC was used. Different experiments were carried out to examine the level of degradation of aliskiren as the drying temperature and time increased. […] The highest allowable drying temperature was set to be 70° C. At 70° C., 60 min was the minimum drying time required to have layers that peel easily and that contain solvent content under regulatory requirements (ethanol<0.5% and water %<0.5%). The layers were stored in a vacuum desiccator overnight to remove excess solvent, and then sealed under vacuum for storage and further characterization.

[4] = Solvent inspection of dried layers after storage in desiccator overnight
Procedure: as §1

[5] = Stability test of […]/HPMC thin layer tablets stored at 40° C., 75% R.H. (HPLC); settings: Pure ALISKIREN (starting drug substance)
Procedure: Tablet forming was done by Instron and a force of up to 25 kN (9 mm diameter die) was recorded. The as-made thin layer tablets are then coated by Opadry AMB for 60 min, with the final coating taking up 10% of the tablet weight. Every 30 tablets were stored in a plastic vial of about 40 ml in volume together with a small standard drying bag. Vials were sealed using aluminum foil and placed at 40° C. for 75% R.H. for 1 month or 3 months. Samples of Aliskiren/HPMC thin layer tablets were tested by HPLC after peeling off the blue coating materials to avoid cross contamination. […] Water content was measured using a […] volumetric KF titration from Mettler Toledo. […] drug purity was verified by Agilent […] series high performance liquid chromatography (HPLC). All analyses were carried out in triplicate. […] The as-obtained tablets were then coated by Opadry AMB and placed at 40° C. for 75% R.H. for 1-month or 3-months stability tests.

CC(=O)Nc1ccc(O)cc1 [ACM only, Acetaminophen]
Tg [1]: 24.8 °C
Crystallization time [2]: <6 h

COCCCOc1cc(C[C@@H](C[C@H](N)[C@@H](O)C[C@H](C(=O)NCC(C)(C)C(N)=O)C(C)C)C(C)C)ccc1OC [Aliskiren]
ALISKIREN purity % ([3]; drying 30° C., 180 min): 99.6%
One single impurity >0.2% ([3]; drying 30° C., 180 min): No
ALISKIREN purity % ([3]; drying 50° C., 90 min): 99.5%
One single impurity >0.2% ([3]; drying 50° C., 90 min): No
ALISKIREN purity % ([3]; drying 50° C., 180 min): 99.5%
One single impurity >0.2% ([3]; drying 50° C., 180 min): No
ALISKIREN purity % ([3]; drying 70° C., 30 min): 99.5%
One single impurity >0.2% ([3]; drying 70° C., 30 min): No
ALISKIREN purity % ([3]; drying 70° C., 60 min): 99.3%
One single impurity >0.2% ([3]; drying 70° C., 60 min): No
ALISKIREN purity % ([3]; drying 70° C., 90 min): 99.2%
One single impurity >0.2% ([3]; drying 70° C., 90 min): No
ALISKIREN purity % ([3]; drying 90° C., 30 min): 98.8%
One single impurity >0.2% ([3]; drying 90° C., 30 min): Yes
Solvent inspection (<0.5%) after stored in dessicator overnight ([4]; drying 30° C., 180 min): Yes
Solvent inspection (<0.5%) after stored in dessicator overnight ([4]; drying 50° C., 90 min): Yes
Solvent inspection (<0.5%) after stored in dessicator overnight ([4]; drying 50° C., 180 min): Yes
Solvent inspection (<0.5%) after stored in dessicator overnight ([4]; drying 70° C., 60 min): Yes
Solvent inspection (<0.5%) after stored in dessicator overnight ([4]; drying 70° C., 90 min): Yes
Purity of ALISKIREN [5]: 99.6%
